Where two headings read alike, the source gives them in different places. Values belong to the compound of their own block, whether it stands above or below them.
What was measured:
[1] = molecular target: T1, baculovirus-expressed ALK (Homo sapiens, UniProt Q9UM73); assay: ALK Kinase Assay (ELISA-type, time-resolved fluorescence); assay type: biochemical
T1 construct: host or cells: baculovirus expression system
In short: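 Plates coated with phospholipase C-γ substrate (10 μg/mL in TBS); reaction started with 30 ng/ml ALK and run 15 min at 37° C. Phosphorylated substrate detected with Eu-N1-labeled PT66 antibody. IC50 from sigmoidal variable-slope fit of percent inhibition vs log concentration.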

[2] = molecular target: T2, c-Met (cytoplasmic domain) (Homo sapiens, UniProt P08581); assay: c-Met Kinase Assay (same methods as for ALK, with modifications); assay type: biochemical
T2 construct: 10 ng/mL c-Met (cytoplasmic domain, Invitrogen Corporation #PV3143); purchased Invitrogen Corporation PV3143
T2 sequence (P08581 956-1390 limits assumed): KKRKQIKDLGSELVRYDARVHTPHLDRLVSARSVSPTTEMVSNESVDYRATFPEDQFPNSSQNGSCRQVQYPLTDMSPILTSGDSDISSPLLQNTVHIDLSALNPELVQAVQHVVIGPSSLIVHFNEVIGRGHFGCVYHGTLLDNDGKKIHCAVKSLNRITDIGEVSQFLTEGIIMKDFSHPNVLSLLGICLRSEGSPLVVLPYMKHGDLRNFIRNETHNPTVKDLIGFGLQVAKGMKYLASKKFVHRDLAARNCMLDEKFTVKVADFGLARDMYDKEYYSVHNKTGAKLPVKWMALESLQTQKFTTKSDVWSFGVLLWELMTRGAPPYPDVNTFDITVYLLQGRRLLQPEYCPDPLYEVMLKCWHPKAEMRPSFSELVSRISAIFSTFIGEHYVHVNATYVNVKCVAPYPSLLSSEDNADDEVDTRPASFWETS
In short: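 Europium-labeled PT66 antibody (Eu-N1) detects substrate phosphorylation on wells coated with phospholipase C-γ at 10 μg/mL. The kinase, the cytoplasmic domain of c-Met at 10 ng/mL, starts the reaction, which proceeds 15 minutes at 37° C.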

[3] = ALK kinase inhibition, 1 μM ATP (Km level), read-out: ALK Activity
[4] = c-Met kinase inhibition, 1 μM ATP (Km level), read-out: cMet Activity
[5] = 1 μM ATP (Km level), read-out: ALK Activity (ALK Kinase Inhibition, IC50)
[6] = 1 μM ATP (Km level), read-out: cMet Activity (c-Met Kinase Inhibition, IC50)
[7] = ALK kinase inhibition, 1 μM ATP, read-out: ALK Activity
[8] = c-Met kinase inhibition, 1 μM ATP, read-out: cMet Activity
[9] = 1 μM ATP (Km level), 30 ng/ml ALK, 37° C., 15 minutes, read-out: ALK Activity (ALK kinase inhibition, IC50 class)
[10] = 1 μM ATP (Km level), 10 ng/mL c-Met, read-out: cMet Activity (c-Met kinase inhibition, IC50 class)

T1 sequence (Q9UM73 19-1620): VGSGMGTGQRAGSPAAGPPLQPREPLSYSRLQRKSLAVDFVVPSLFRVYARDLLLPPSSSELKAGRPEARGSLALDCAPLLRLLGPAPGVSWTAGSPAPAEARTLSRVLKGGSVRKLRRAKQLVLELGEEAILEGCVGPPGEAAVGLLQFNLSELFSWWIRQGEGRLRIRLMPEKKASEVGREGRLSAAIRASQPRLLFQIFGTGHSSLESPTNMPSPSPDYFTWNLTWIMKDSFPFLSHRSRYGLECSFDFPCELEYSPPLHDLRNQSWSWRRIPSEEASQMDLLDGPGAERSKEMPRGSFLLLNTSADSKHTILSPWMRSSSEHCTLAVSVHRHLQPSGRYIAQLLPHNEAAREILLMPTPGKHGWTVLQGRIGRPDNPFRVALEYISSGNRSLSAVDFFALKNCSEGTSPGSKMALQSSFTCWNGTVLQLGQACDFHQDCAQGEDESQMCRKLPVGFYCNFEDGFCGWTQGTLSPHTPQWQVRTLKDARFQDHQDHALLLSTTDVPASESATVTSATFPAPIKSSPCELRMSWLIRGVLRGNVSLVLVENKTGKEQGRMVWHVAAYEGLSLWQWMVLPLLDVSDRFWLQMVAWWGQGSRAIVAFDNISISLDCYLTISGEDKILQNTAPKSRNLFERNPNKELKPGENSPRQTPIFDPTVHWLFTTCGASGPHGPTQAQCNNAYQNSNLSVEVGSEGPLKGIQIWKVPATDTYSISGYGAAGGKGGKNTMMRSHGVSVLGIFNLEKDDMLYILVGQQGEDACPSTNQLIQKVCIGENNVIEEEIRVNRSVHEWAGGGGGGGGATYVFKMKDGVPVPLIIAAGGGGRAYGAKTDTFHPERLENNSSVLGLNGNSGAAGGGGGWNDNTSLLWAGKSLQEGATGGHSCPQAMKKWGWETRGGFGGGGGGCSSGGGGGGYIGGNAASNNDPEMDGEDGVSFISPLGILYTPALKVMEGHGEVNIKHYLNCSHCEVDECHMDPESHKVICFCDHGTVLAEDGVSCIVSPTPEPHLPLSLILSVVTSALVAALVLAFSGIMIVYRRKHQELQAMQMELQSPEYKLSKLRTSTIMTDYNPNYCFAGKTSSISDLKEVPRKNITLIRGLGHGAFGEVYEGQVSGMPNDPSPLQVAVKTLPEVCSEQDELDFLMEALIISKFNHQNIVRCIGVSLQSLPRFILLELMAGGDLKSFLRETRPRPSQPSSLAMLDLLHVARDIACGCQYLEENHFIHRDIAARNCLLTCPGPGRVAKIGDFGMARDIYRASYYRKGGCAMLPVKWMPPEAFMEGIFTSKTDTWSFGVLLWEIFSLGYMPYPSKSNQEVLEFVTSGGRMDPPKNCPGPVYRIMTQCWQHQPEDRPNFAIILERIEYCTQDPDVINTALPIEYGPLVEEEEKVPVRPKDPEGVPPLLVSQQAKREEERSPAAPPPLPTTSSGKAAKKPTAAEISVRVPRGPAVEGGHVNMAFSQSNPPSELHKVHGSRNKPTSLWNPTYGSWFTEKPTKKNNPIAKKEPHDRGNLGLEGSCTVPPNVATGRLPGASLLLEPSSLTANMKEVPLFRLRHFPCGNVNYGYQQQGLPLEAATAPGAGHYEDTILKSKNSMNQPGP

Structure (SMILES): CNC(=O)c1cccc(C)c1Nc1nc(Nc2ccc3c(c2)CCN(CCOC)CC3)ncc1C(F)(F)F [Example 922, 2-{2-[3-(2-Methoxyethyl)-2,3,4,5-tetrahydro-1H-benzo[d]azepin-7-ylamino]-5-trifluoromethylpyrimidin-4-ylamino}-3,N-dimethylbenzamide]
IC50 [1, 5]: 100 to 1000 nM
IC50 [2, 6]: < 100 nM

Structure (SMILES): COc1cc2c(cc1Nc1ncc(Cl)c(Nc3ccccc3S(=O)(=O)C(C)C)n1)CCN(CC(F)F)CC2 [Example 827, 5-Chloro-N*2*-[3-(2,2-difluoro-ethyl)-8-methoxy-2,3,4,5-tetrahydro-1H-benzo[d]azepin-7-yl]-N*4*-[2-(propane-2-sulfonyl)-phenyl]-pyrimidine-2,4-diamine]
IC50 [1, 5]: < 100 nM
IC50 [2, 6]: > 10000 nM

Structure (SMILES): CCN1C(=O)[C@@H](N2CCOCC2)CCc2c1ccc(Nc1ncc(Cl)c(N[C@H]3[C@@H](C(N)=O)[C@@H]4C=C[C@H]3C4)n1)c2OC (single isomer, unassigned) [Example 1345]
IC50 [1, 9]: < 100 nM
IC50 [2, 10]: > 10000 nM

Structure (SMILES): CCN1CCN(CC)c2cc(Nc3ncc(Cl)c(Nc4ccc5c(c4)N(CC)CCN(CC)C5=O)n3)ccc2C1 [Example 722, 8-[5-Chloro-2-(1,4-diethyl-2,3,4,5-tetrahydro-1H-benzo[e][1,4]diazepin-8-ylamino)-pyrimidin-4-ylamino]-1,4-diethyl-1,2,3,4-tetrahydro-benzo[e][1,4]diazepin-5-one]
IC50 [1, 5]: 100 to 1000 nM
IC50 [2, 6]: > 10000 nM

Structure (SMILES): CCN1C(=O)CCCc2cc(Nc3ncc(Cl)c(N[C@@H]4CCCC[C@H]4N(C)S(C)(=O)=O)n3)c(OC)cc21 [Example 1678, N-{(1R,2R)-2-[5-Chloro-2-(1-ethyl-8-methoxy-2-oxo-2,3,4,5-tetrahydro-1H-benzo[b]azepin-7-ylamino)-pyrimidin-4-ylamino]-cyclohexyl}-N-methyl-methanesulfonamide]
IC50 [1, 7]: < 100 nM
IC50 [2, 8]: 1000 to 10000 nM

Structure (SMILES): COCCN1CCOc2ccc(Nc3ncc(Cl)c(N[C@@H]4CCCC[C@H]4NS(C)(=O)=O)n3)cc2C1 [Example 711, N-((1R,2R)-2-{5-Chloro-2-[4-(2-methoxy-ethyl)-2,3,4,5-tetrahydro-benzo[f][1,4]oxazepin-7-ylamino]-pyrimidin-4-ylamino}-cyclohexyl)methanesulfonamide]
IC50 [1, 5]: < 100 nM
IC50 [2, 6]: 100 to 1000 nM

Structure (SMILES): Cn1ccnc1-c1ccccc1Nc1nc(Nc2ccc3c(c2)CCC(N2CCOCC2)CC3)ncc1Cl (stereo not shown) [Example 218, 5-Chloro-N*4*-[2-(1-methyl-1H-imidazol-2-yl)-phenyl]-N*2*-(7-morpholin-4-yl-6,7,8,9-tetrahydro-5H-benzocyclohepten-2-yl)-pyrimidine-2,4-diamine]
IC50 [1, 3]: < 100 nM
IC50 [2, 4]: 100 to 1000 nM

Structure (SMILES): CCN1CCc2ccc(Nc3ncc(Cl)c(NCC(C)(C)NS(C)(=O)=O)n3)cc2CC1 [Example 304, N-{2-[5-Chloro-2-(3-ethyl-2,3,4,5-tetrahydro-1H-benzo[d]azepin-7-ylamino)-pyrimidin-4-ylamino]-1,1-dimethyl-ethyl}-methanesulfonamide]
IC50 [1, 3]: 100 to 1000 nM
IC50 [2, 4]: 1000 to 10000 nM

Structure (SMILES): COc1cc2c(cc1Nc1ncc(Cl)c(Nc3ccccc3S(=O)(=O)N(C)C)n1)CCN(CCOP(=O)(O)O)CC2 [Example 1545, Phosphoric acid mono-(2-{7-[5-chloro-4-(2-dimethylsulfamoyl-phenylamino)-pyrimidin-2-ylamino]-8-methoxy-1,2,4,5-tetrahydro-3-benzazepin-3-yl}-ethyl)ester]
IC50 [1, 7]: < 100 nM
IC50 [2, 8]: 1000 to 10000 nM

Structure (SMILES): COCCN1CCN(C)c2cc(Nc3ncc(Cl)c(N[C@@H]4CCCC[C@H]4NS(C)(=O)=O)n3)c(OC)cc2C1 [Example 490, N-((1R,2R)-2-{5-Chloro-2-[7-methoxy-4-(2-methoxy-ethyl)-1-methyl-2,3,4,5-tetrahydro-1H-benzo[e][1,4]diazepin-8-ylamino]-pyrimidin-4-ylamino}-cyclohexyl)-methanesulfonamide]
IC50 [1, 3]: < 100 nM
IC50 [2, 4]: > 10000 nM

Structure (SMILES): CCN1CC(=O)N(CC)c2cc(Nc3ncc(Cl)c(N[C@H]4[C@@H](C(N)=O)[C@@H]5C=C[C@H]4C5)n3)c(OC)cc2C1 [Example 739, (1S,2,3R,4R)-3-[5-Chloro-2-(1,4-diethyl-7-methoxy-2-oxo-2,3,4,5-tetrahydro-1H-benzo[e][1,4]diazepin-8-ylamino)-pyrimidin-4-ylamino]-bicyclo(2.2.1)hept-5-ene-2-carboxylic acid amide]
IC50 [1, 5]: 100 to 1000 nM
IC50 [2, 6]: > 10000 nM

Next, values leading:

IC50 [1, 3]: < 100 nM
IC50 [2, 4]: 100 to 1000 nM
Structure (SMILES): CNC(=O)c1ccccc1Nc1nc(Nc2cc3c(cc2OC)CCN(CCOC)CC3)ncc1Cl [Example 241, 2-{5-Chloro-2-[8-methoxy-3-(2-methoxy-ethyl)-2,3,4,5-tetrahydro-1H-benzo[d]azepin-7-ylamino]-pyrimidin-4-ylamino}-N-methyl-benzamide]

IC50 [1, 7]: 1000 to 10000 nM
IC50 [2, 8]: 1000 to 10000 nM
Structure (SMILES): CN1C(=O)OCCc2cc(Nc3ncc(Cl)c(Nc4c(F)cccc4OCCN)n3)ccc21 [Example 1781, 2-{4-[2-(2-Amino-ethoxy)-6-fluoro-phenylamino]-5-chloro-pyrimidin-2-ylamino}-5-methyl-8,9-dihydro-5H-7-oxa-5-aza-benzocyclohepten-6-one]

IC50 [1, 7]: 100 to 1000 nM
IC50 [2, 8]: < 100 nM
Structure (SMILES): CNC(=O)c1sccc1Nc1nc(Nc2ccc3c(c2)CCOC(=O)N3C)ncc1Cl [Example 1747, 3-[5-Chloro-2-(5-methyl-6-oxo-5,6,8,9-tetrahydro-7-oxa-5-aza-benzocyclohepten-2-ylamino)-pyrimidin-4-ylamino]-thiophene-2-carboxylic acid methylamide]

IC50 [1, 9]: < 100 nM
IC50 [2, 10]: 100 to 1000 nM
Structure (SMILES): COCCN1CCc2ccc(Nc3ncc(Cl)c(Nc4ccccc4C(=O)OC)n3)cc2CC1 [Example 1408, 2-{5-Chloro-2-[3-(2-methoxy-ethyl)-2,3,4,5-tetrahydro-1H-benzo[d]azepin-7-ylamino]-pyrimidin-4-ylamino}-benzoic acid methyl ester]

IC50 [1, 9]: 100 to 1000 nM
IC50 [2, 10]: > 10000 nM
Structure (SMILES): CNC(=O)CN1CCc2cc(Nc3ncc(Cl)c(Nc4cc(C(N)=O)ccc4OC)n3)c(OC)cc2CC1 [Example 1138, 3-[5-Chloro-2-(8-methoxy-3-methylcarbamoylmethyl-2,3,4,5-tetrahydro-1H-benzo[d]azepin-7-ylamino)-pyrimidin-4-ylamino]-4-methoxy-benzamide]

IC50 [1, 7]: 100 to 1000 nM
IC50 [2, 8]: 100 to 1000 nM
Structure (SMILES): CNC(=O)c1cnn(C)c1Nc1nc(Nc2ccc3c(c2)CC(=O)N(C)CC3)ncc1Cl [Example 1821, 5-[5-Chloro-2-(3-methyl-4-oxo-2,3,4,5-tetrahydro-1H-benzo[d]azepin-7-ylamino)-pyrimidin-4-ylamino]-1-methyl-1H-pyrazole-4-carboxylic acid methylamide]

IC50 [1, 3]: < 100 nM
IC50 [2, 4]: < 100 nM
Structure (SMILES): CCN1C2CCC1c1cc(Nc3ncc(Cl)c(Nc4ccccc4C(=O)NC)n3)ccc1C2 (racemic) [Example 101, (+/−)-2-[5-Chloro-2-(12-ethyl-12-aza-tricyclo[7.2.1.0*2,7*]dodeca-2(7),3,5-trien-4-ylamino)-pyrimidin-4-ylamino]-N-methyl-benzamide]

IC50 [1, 7]: < 100 nM
IC50 [2, 8]: 1000 to 10000 nM
Structure (SMILES): CNC(=O)c1ccccc1Nc1nc(Nc2cc3c(cc2OC)NC(=O)CCC3(C)C)ncc1Cl [Example 1671, 2-[5-Chloro-2-(8-methoxy-5,5-dimethyl-2-oxo-2,3,4,5-tetrahydro-1H-benzo[b]azepin-7-ylamino)-pyrimidin-4-ylamino]-N-methyl-benzamide]

IC50 [1, 7]: < 100 nM
IC50 [2, 8]: < 100 nM
Structure (SMILES): CNC(=O)c1cccc(F)c1Nc1nc(Nc2ccc3c(c2)N(CCN(C)C)CCCC3(C)C)ncc1Cl [Example 1638, 2-{5-Chloro-2-[1-(2-dimethylamino-ethyl)-5,5-dimethyl-2,3,4,5-tetrahydro-1H-benzo[b]azepin-8-ylamino]-pyrimidin-4-ylamino}-3-fluoro-N-methyl-benzamide]

IC50 [1, 7]: 100 to 1000 nM
IC50 [2, 8]: 100 to 1000 nM
Structure (SMILES): CNC(=O)c1cccc(F)c1Nc1nc(Nc2ccc3c(c2)N(C(=O)N2CCCC2)CCCC3(C)C)ncc1Cl [Example 1620, 2-{5-Chloro-2-[5,5-dimethyl-1-(pyrrolidine-1-carbonyl)-2,3,4,5-tetrahydro-1H-benzo[b]azepin-8-ylamino]-pyrimidin-4-ylamino}-3-fluoro-N-methyl-benzamide]

IC50 [1, 3]: 100 to 1000 nM
IC50 [2, 4]: < 100 nM
Structure (SMILES): C#CCNC(=O)c1cccc(F)c1Nc1nc(Nc2ccc3c(c2)N(CC)C(=O)CN(C(=O)OCC)C3)ncc1Cl [Example 1876, 8-[5-Chloro-4-(2-fluoro-6-prop-2-ynylcarbamoyl-phenylamino)-pyrimidin-2-ylamino]-1-ethyl-2-oxo-1,2,3,5-tetrahydro-benzo[e][1,4]diazepine-4-carboxylic acid ethyl ester]

IC50 [1, 5]: < 100 nM
IC50 [2, 6]: 100 to 1000 nM
Structure (SMILES): CNC(=O)[C@@H]1[C@H](Nc2nc(Nc3ccc4c(c3)C(C)(C)CCC(=O)N4)ncc2Cl)[C@H]2C=C[C@@H]1C2 (relative stereo) [Example 620, (2-exo-3-exo)-3-[5-Chloro-2-(5,5-dimethyl-2-oxo-2,3,4,5-tetrahydro-1H-benzo[b]azepin-7-ylamino)-pyrimidin-4-ylamino]-bicyclo[2.2.1]hept-5-ene-2-carboxylic acid methylamide]
